Measured values from ChEMBL document CHEMBL3822381, “Design, synthesis, and evaluation of Trolox-conjugated amyloid-β C-terminal peptides for therapeutic intervention in an in vitro model of Alzheimer's disease” (Bioorg Med Chem, 2016).
The source made the active and inactive calls. The rule behind the calls is not given here. Residues, ends and D or L forms follow the SMILES beside them. *: point of attachment. Trolox = Cc1c(C)c2c(c(C)c1O)CCC(C)(C(=O)*)O2

Tests used:
[1] = biological target: Amyloid-beta precursor protein (Homo sapiens) (UniProt P05067); experiment: Inhibition of amyloid beta (1 to 42) (unknown origin) aggregation at 80 uM by ThT-fluorescence assay relative to control
SH-SY5Y [2] = experiment: Neuroprotective activity against amyloid beta (1 to 42)-induced neurotoxicity in human SH-SY5Y cells assessed as increase in cell viability at 5 to 40 uM measured after 48 hrs by WST-8 assay; format: functional, cell-based
SH-SY5Y [3] = experiment: Neuroprotective activity against amyloid beta (1 to 42)-induced neurotoxicity in human SH-SY5Y cells assessed as increase in cell viability at 40 uM measured after 48 hrs by WST-8 assay; format: functional, cell-based
SH-SY5Y [4] = experiment: Antioxidant activity in human SH-SY5Y cells assessed as inhibition of H2O2-induced ROS production preincubated for 1 day prior H2O2 treatment at 25 uM by DCFH-DA-based fluorescence analysis; format: functional, cell-based
SH-SY5Y [5] = experiment: Antioxidant activity against human SH-SY5Y cells assessed as amyloid beta (1 to 42)-induced ROS production preincubated for 1 day prior H2O2 treatment at 1.25 uM by DCFH-DA-based fluorescence analysis relative to control; format: functional
SH-SY5Y [6] = experiment: Cytotoxicity against human SH-SY5Y cells assessed as cell viability up to 40 uM measured after 48 hrs by WST-8 assay; format: cell-based
SH-SY5Y [7] = experiment: Neuroprotective activity against amyloid beta (1 to 42)-induced neurotoxicity in human SH-SY5Y cells assessed as increase in cell viability measured after 48 hrs by WST-8 assay; format: functional, cell-based
SH-SY5Y [8] = experiment: Neuroprotective activity against amyloid beta (1 to 42)-induced neurotoxicity in human SH-SY5Y cells assessed as increase in cell viability at 20 uM measured after 48 hrs by WST-8 assay; format: functional, cell-based

Amyloid-beta precursor protein (Homo sapiens), sequence (P05067 whole entry): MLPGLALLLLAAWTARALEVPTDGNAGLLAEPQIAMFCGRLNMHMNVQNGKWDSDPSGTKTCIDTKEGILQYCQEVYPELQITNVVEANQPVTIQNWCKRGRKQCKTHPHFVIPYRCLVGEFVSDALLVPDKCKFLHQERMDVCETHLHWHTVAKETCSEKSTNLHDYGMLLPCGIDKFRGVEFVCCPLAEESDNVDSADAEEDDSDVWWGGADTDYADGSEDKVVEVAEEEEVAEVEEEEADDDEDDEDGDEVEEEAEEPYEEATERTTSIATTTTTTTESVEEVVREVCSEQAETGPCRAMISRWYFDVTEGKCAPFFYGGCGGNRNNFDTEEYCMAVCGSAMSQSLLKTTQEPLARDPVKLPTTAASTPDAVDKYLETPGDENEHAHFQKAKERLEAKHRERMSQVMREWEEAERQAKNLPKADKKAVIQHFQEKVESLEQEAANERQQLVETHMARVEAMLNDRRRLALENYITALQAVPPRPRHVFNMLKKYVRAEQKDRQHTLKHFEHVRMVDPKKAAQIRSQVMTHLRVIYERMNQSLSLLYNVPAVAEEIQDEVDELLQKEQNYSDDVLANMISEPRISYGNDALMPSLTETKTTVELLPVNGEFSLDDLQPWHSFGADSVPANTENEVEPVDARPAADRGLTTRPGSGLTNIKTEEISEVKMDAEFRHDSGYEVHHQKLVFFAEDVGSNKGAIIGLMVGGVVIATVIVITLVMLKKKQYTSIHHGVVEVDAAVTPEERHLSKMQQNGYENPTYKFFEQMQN

Row | Structure (SMILES) | inhibition [1] | further results
1 | CC[C@H](C)[C@H](NC(=O)[C@@H](NC(=O)C1(C)CCc2c(C)c(O)c(C)c(C)c2O1)C(C)C)C(=O)N[C@@H](C)C(=O)O (stereo partly drawn) | 2.8% | –
2 | CC[C@H](C)[C@H](NC(=O)[C@@H](NC(=O)[C@@H](NC(=O)CNC(=O)CNC(=O)[C@@H](NC(=O)[C@H](CCSC)NC(=O)[C@H](CC(C)C)NC(=O)C1(C)CCc2c(C)c(O)c(C)c(C)c2O1)C(C)C)C(C)C)C(C)C)C(=O)N[C@@H](C)C(=O)O (stereo partly drawn) | 39.5% | –
3 | Cc1c(C)c2c(c(C)c1O)CCC(C)(C(=O)NCC(=O)N[C@H](C(=O)N[C@H](C(=O)O)C(C)C)C(C)C)O2 (stereo partly drawn) | inactive | –
4 | Cc1c(C)c2c(c(C)c1O)CCC(C)(C(=O)N[C@H](C(=O)O)C(C)C)O2 (stereo partly drawn) | inactive | –
5 | CC[C@H](C)[C@H](NC(=O)[C@@H](NC(=O)[C@@H](NC(=O)CNC(=O)C1(C)CCc2c(C)c(O)c(C)c(C)c2O1)C(C)C)C(C)C)C(=O)N[C@@H](C)C(=O)O (stereo partly drawn) (Trolox-GVVIA-OH) | 4.7% | –
6 | CC[C@H](C)[C@H](NC(=O)[C@@H](NC(=O)[C@@H](NC(=O)CNC(=O)C1(C)CCc2c(C)c(O)c(C)c(C)c2O1)C(C)C)C(C)C)C(=O)N[C@@H](C)C(=O)N[C@H](C(=O)O)[C@@H](C)O (stereo partly drawn) (Trolox-GVVIAT-OH) | 5% | –
7 | CSCC[C@H](NC(=O)[C@H](CC(C)C)NC(=O)C1(C)CCc2c(C)c(O)c(C)c(C)c2O1)C(=O)N[C@H](C(=O)NCC(=O)NCC(=O)N[C@H](C(=O)N[C@H](C(=O)O)C(C)C)C(C)C)C(C)C (stereo partly drawn) (Trolox-LMVGGVV-OH) | inactive | –
8 | CC[C@H](C)[C@H](NC(=O)[C@@H](NC(=O)[C@@H](NC(=O)CNC(=O)CNC(=O)[C@@H](NC(=O)[C@H](CCSC)NC(=O)[C@H](CC(C)C)NC(=O)C1(C)CCc2c(C)c(O)c(C)c(C)c2O1)C(C)C)C(C)C)C(C)C)C(=O)N[C@@H](C)C(=O)N[C@H](C(=O)O)[C@@H](C)O (stereo partly drawn) (Trolox-LMVGGVVIAT-OH) | 40.4% | –
9 | Cc1c(C)c2c(c(C)c1O)CCC(C)(C(=O)N[C@H](C(=O)NCC(=O)NCC(=O)N[C@H](C(=O)N[C@H](C(=O)O)C(C)C)C(C)C)C(C)C)O2 (stereo partly drawn) (Trolox-VGGVV-OH) | inactive | Activity (SH-SY5Y [2]): inactive
10 | CC[C@H](C)[C@H](NC(=O)[C@@H](NC(=O)[C@@H](NC(=O)CNC(=O)CNC(=O)[C@@H](NC(=O)C1(C)CCc2c(C)c(O)c(C)c(C)c2O1)C(C)C)C(C)C)C(C)C)C(=O)N[C@@H](C)C(=O)O (stereo partly drawn) (Trolox-VGGVVIA-OH) | 17.7% | Activity (SH-SY5Y [3]): Active; inhibition (SH-SY5Y [4]): Active; Activity (SH-SY5Y [5]): 37.6%; Activity (SH-SY5Y [6]): Non-toxic; Activity (SH-SY5Y [7]): Dose-dependent effect
11 | CC[C@H](C)[C@H](NC(=O)[C@@H](NC(=O)[C@@H](NC(=O)CNC(=O)CNC(=O)[C@@H](NC(=O)C1(C)CCc2c(C)c(O)c(C)c(C)c2O1)C(C)C)C(C)C)C(C)C)C(=O)N[C@@H](C)C(=O)N[C@H](C(=O)O)[C@@H](C)O (stereo partly drawn) (Trolox-VGGVVIAT-OH) | 17.3% | Activity (SH-SY5Y [3]): inactive; Activity (SH-SY5Y [6]): Non-toxic; Activity (SH-SY5Y [8]): Active
12 | CC[C@H](C)[C@H](NC(=O)[C@@H](NC(=O)C1(C)CCc2c(C)c(O)c(C)c(C)c2O1)C(C)C)C(=O)N[C@@H](C)C(=O)N[C@H](C(=O)O)[C@@H](C)O (stereo partly drawn) (Trolox-VIAT-OH) | 6.6% | –
13 | Cc1c(C)c2c(c(C)c1O)CCC(C)(C(=O)O)O2 (stereo not drawn) [TROLOX] | – | inhibition (SH-SY5Y [4]): Active; Activity (SH-SY5Y [5]): 23.6%
